Test system: CVD (CHD or stroke)
Test: WOSCOPS: SNP by pravastatin treatment interaction, logistic regression (synergy index), CVD endpoint
Type: in vivo, human
Details: for OR (SNP x pravastatin treatment interaction): Imputed, WOSCOPS pravastatin vs placebo; for OR: WOSCOPS
Text: CARE was a secondary prevention trial and WOSCOPS was a primary prevention trial.
The CHD endpoint was defined in the analyses herein of CARE as a composite endpoint of fatal CHD, definite non-fatal MI, or revascularization, and was defined in the analyses herein of WOSCOPS as a composite endpoint of death from CHD, nonfatal MI, or revascularization. In both the CARE and WOSCOPS analyses herein, the CVD endpoint was defined as a composite endpoint of CHD or stroke. […] Revascularization, which can include percutaneous transluminal coronary angioplasty (PTCA), stent placement, and coronary artery bypass graft (CABG), are medical interventions that indicate the presence of CHD.
Cohort and case-only study designs were used to identify SNPs associated with response to statin treatment.
For each SNP, a logistic regression model having treatment status as the dependent variable and SNP as the independent predictor variable was performed, with terms for age, sex and race included in the model as covariates. The anti-log of the regression coefficient corresponding to the SNP is an estimate of the synergy index (SI) (Davis et al., “Imputing gene-treatment interactions when the genotype distribution is unknown using case-only and putative placebo analyses-a new method for the Genetics of Hypertension Associated Treatment (GenHAT) study”, Statistics in Medicine 23: (2004), pages 2413-2427). The SI is a ratio of odds ratios: for example in the CARE and WOSCOPS studies, the SI represents the factor by which the odds-ratio of statin treatment, compared with placebo, among major homozygous individuals is multiplied by in order to obtain the odds-ratio of treatment vs. placebo among heterozygous individuals; and multiplied by a second time to obtain the odds-ratio of treatment vs. placebo in minor homozygous individuals. […] In a randomized clinical trial, genotype and treatment are independent by design.

CC[C@H](C)C(=O)O[C@H]1C[C@H](O)C=C2C=C[C@H](C)[C@H](CC[C@@H](O)C[C@@H](O)CC(=O)O)[C@H]21 [Pravastatin, pravastatin]
OR (SNP x pravastatin treatment interaction) (SNP rs12820589, allele A1=G, model DOM): 1.936 | OR (SNP x pravastatin treatment interaction) (SNP rs12831292, allele A1=G, model ADD): 0.6841 | OR (SNP x pravastatin treatment interaction) (SNP rs12831292, allele A1=G, model DOM): 0.62 | OR (SNP x pravastatin treatment interaction) (SNP rs13012636, allele A1=G, model REC): 1.901 | OR (SNP x pravastatin treatment interaction) (SNP rs13038146, allele A1=C, model ADD): 1.407 | OR (SNP x pravastatin treatment interaction) (SNP rs13038146, allele A1=C, model REC): 1.414 | OR (SNP x pravastatin treatment interaction) (SNP rs13089860, allele A1=A, model DOM): 0.6221 | OR (SNP x pravastatin treatment interaction) (SNP rs13102419, allele A1=T, model REC): 1.668 | OR (synergy index), WOSCOPS, Prava vs Placebo (SNP rs13121569 (A1 G, A2 A), dom model, CVD endpoint, Caseonly): 0.78 | OR (SNP x pravastatin treatment interaction) (SNP rs13194907, allele A1=A, model ADD): 1.964 | OR (SNP x pravastatin treatment interaction) (SNP rs13194907, allele A1=A, model DOM): 2.136 | OR (SNP x pravastatin treatment interaction) (SNP rs13195745, allele A1=A, model ADD): 1.964 | OR (SNP x pravastatin treatment interaction) (SNP rs13195745, allele A1=A, model DOM): 2.136 | OR (SNP x pravastatin treatment interaction) (SNP rs13265054, allele A1=T, model DOM): 0.6754 | OR (SNP x pravastatin treatment interaction) (SNP rs13282131, allele A1=C, model ADD): 1.415 | OR (SNP x pravastatin treatment interaction) (SNP rs13282131, allele A1=C, model REC): 1.595 | OR (SNP x pravastatin treatment interaction) (SNP rs13387284, allele A1=A, model DOM): 0.5278 | OR (SNP x pravastatin treatment interaction) (SNP rs13401462, allele A1=C, model DOM): 2.137 | OR (SNP x pravastatin treatment interaction) (SNP rs13409045, allele A1=T, model ADD): 0.6931 | OR (marker rs208025, source caseonly, pravastatin vs placebo): 1.52 | OR (marker rs478859, source caseonly, pravastatin vs placebo): 1.33 | OR (marker rs623400, source caseonly, pravastatin vs placebo): 0.62 | OR (marker rs675163, source caseonly, pravastatin vs placebo): 0.71 | OR (marker rs1536506, source caseonly, pravastatin vs placebo): 1.43 | OR (marker rs1866386, source caseonly, pravastatin vs placebo): 0.81 | OR (marker rs2869680, source caseonly, pravastatin vs placebo): 0.70 | OR (marker rs2880563, source caseonly, pravastatin vs placebo): 1.51 | OR (marker rs4251580, source caseonly, pravastatin vs placebo): 0.55 | OR (marker rs4689078, source caseonly, pravastatin vs placebo): 1.45 | OR (marker rs5764592, source caseonly, pravastatin vs placebo): 1.87 | OR (marker rs6040760, source caseonly, pravastatin vs placebo): 1.23 | OR (marker rs7623808, source caseonly, pravastatin vs placebo): 4.22 | OR (marker rs7915250, source caseonly, pravastatin vs placebo): 0.81 | OR (marker rs10106852, source caseonly, pravastatin vs placebo): 1.56 | OR (marker rs10460737, source caseonly, pravastatin vs placebo): 0.10 | OR (marker rs10817479, source caseonly, pravastatin vs placebo): 1.37 | OR (marker rs12286877, source caseonly, pravastatin vs placebo): 2.30 | OR (marker rs12608167, source caseonly, pravastatin vs placebo): 0.66 | OR (marker rs17310169, source caseonly, pravastatin vs placebo): 0.81 | OR (marker rs77638540, source caseonly, pravastatin vs placebo): 0.68 | OR (rs198461 allele C DOM Imputed): 0.4755 | OR (rs208757 allele G ADD Imputed): 1.353 | OR (rs208757 allele G DOM Imputed): 1.453 | OR (rs331555, add, Caseonly, CVD, pravastatin vs placebo): 0.77 | OR (rs1076733, dom, Caseonly, CVD, pravastatin vs placebo): 0.62 | OR (rs1182878, add, Caseonly, CVD, pravastatin vs placebo): 0.75 | OR (rs1474396, dom, Caseonly, CVD, pravastatin vs placebo): 1.73 | OR (rs1782328 allele A ADD Imputed): 0.5789 | OR (rs1796337 allele T DOM Imputed): 0.5422 | OR (rs1798083 allele C DOM Imputed): 0.4733 | OR (rs1798085 allele T DOM Imputed): 0.4727 | OR (rs1798086 allele T DOM Imputed): 0.4689 | OR (rs1798089 allele C REC Imputed): 1.806 | OR (rs1798090 allele C REC Imputed): 1.806 | OR (rs1832222 allele G DOM Imputed): 1.351 | OR (rs1838104 allele A ADD Imputed): 0.6393 | OR (rs1868616 allele G ADD Imputed): 0.7123 | OR (rs1874313 allele A DOM Imputed): 0.6182
